According to US11299641B2, “Curable liquid composition, composition-accommodating container, liquid composition discharging device, cured material, and method of manufacturing cured material” (RICOH COMPANY, LTD., priority 2018, dated 2022):

Tested on: female mice
Assay: skin sensitization test in accordance with the Local Lymph Node Assay (LLNA) method, SI value
Type: in vivo
Conditions: test substance 50.0 w/v percent in acetone/olive oil 4 to 1, 25 μL per ear once a day for three days, BrdU intake
Description: The SI value was measured in the manner described below according to the skin sensitization test in accordance with the Local Lymph Node Assay (LLNA) method.
α-hexylcinnamaldehyde (HCA; product of FUJIFILM Wako Pure Chemical Corporation) was used as positive control material.
A liquid mixture containing acetone (product of FUJIFILM Wako Pure Chemical Corporation) and olive oil (product of Fudimi Pharmaceutical Co., Ltd.) in a volume ratio of 4 to 1 was used as medium.
For each of the test substances, the positive control, or the medium control, female mice were acclimated for 8 days including 6-day quarantine. No abnormalities were found in all the mice during the quarantine/acclimation period.
Based on the body weights measured two days before the initiation of sensitization, the mice were categorized into 2 groups (4 mice/group) by the body weight stratified random sampling method so that the body weight of each individual was within −20 to +20 percent of the average body weight of all the individuals. Each of the tested animals was 8 to 9 weeks old at the time of the initiation of sensitization. The individuals not classified into the groups were excluded from the test.
The group compositions of the medium control group and positive control group used for the measurement of the SI value are shown in Table 1.
The test substance was weighed in a measuring flask, and the volume of the test substance was adjusted to 1 mL while adding the medium. The thus-prepared test substance solution was placed in a light-shielded airtight container (made of glass).
The preparation solution and the medium of each test substance and positive control substance were applied to both ears of each animal in an amount of 25 μL for each. A micropipettor was used for application. The tested animals were subjected to this treatment once a day for three consecutive days.
About 48 hours after the final sensitization, the BrdU preparation solution (0.5 mL) was intraperitoneally administered once to each of the tested animals.
All the animals used for the test were observed once or more times a day from the day of the initiation of sensitization to the day of the removal of the auricular lymph node (i.e., the day when the animals were transferred from the animal room). […] Measurement of Body Weights The body weight of each of the tested animals was measured on the day of the initiation of sensitization and on the day of the removal of the auricular lymph node (i.e., the day when the animals were transferred from the animal room). Also, the weight average and the standard error for each group were calculated. Removal of Auricular Lymph Node and Measurement of Weight Thereof About 24 hours after the administration of BrdU, the tested animals were allowed to undergo euthanasia, and their auricular lymph nodes were sampled. The surrounding tissue of each auricular lymph node was removed, and the auricular lymph nodes from both the auricles were collectively weighed. Also, the weight average and the standard error of the auricular lymph nodes for each group were calculated. After the weight measurement, the auricular lymph nodes of each individual were stored in a frozen state using a BIO MEDICAL FREEZER set to −20 degrees C. Measurement of BrdU Intake After returning the auricular lymph nodes to room temperature, the auricular lymph nodes were mashed with the gradual addition of physiological saline, and suspended therein. The thus-obtained suspension was filtrated and thereafter dispensed into a 96-well microplate 3 wells by 3 wells per individual. The thus-dispensed suspensions were measured for intake of BrdU according to the ELISA method. The reagents used were a commercially available kit (Cell Proliferation ELISA, BrdU colorimetric, Cat. No. 1647229, product of Roche Diagnostics K.K.). […]

| Molecule | SI value in the LLNA test |
| --- | --- |
| C=CC(=O)OCCCCCCCCCCCCCCCC(C)C [Example A5, Isostearyl acrylate] | 1.4 |
| CCC(Cc1ccccc1)(C(=O)c1ccc(N2CCOCC2)cc1)N(C)C (stereo not drawn) [Example B3, 2-(dimethylamino)-1-(4-morpholinophenyl)-2-benzyl-1-butanone] | 10 |
| C=C(C)C(=O)OCC(CO)OC(=O)C(=C)C (stereo not drawn) [Example A7, Glycerol dimethacrylate] | 1.2 |
| Tricyclodecanedimethanol dimethacrylate [Example A6] | 1.3 |
| Polypropylene glycol diacrylate [Example A4] | 1.5 |
| C=C(C)C(=O)OCCOCCOC(=O)C(=C)C [Example A1, Diethylene glycol dimethacrylate] | 1.1 |
| C=C(C)C(=O)OCC(O)CO (stereo not drawn) [Example A8, Glycerol monomethacrylate] | 1.1 |

Tested on: not given
Assay: not given
Conditions: Safety Data Sheet; cited from earlier work

| Molecule | skin sensitization, evaluation by SDS |
| --- | --- |
| Caprolactone-modified dipentaerythritol hexaacrylate [Example A2] | none |
| CC(C)(O)C(=O)c1ccc(OCCO)cc1 [Example B1, 1-[4-(2-hydroxyethoxy)-phenyl]-2-hydroxy-2-methyl-1-propane-1-one] | none |
